Test results reported in ChEMBL document CHEMBL5291721, “A preclinical secondary pharmacology resource illuminates target-adverse drug reaction associations of marketed drugs” (Nat Commun, 2023).

Key:
[1] = target: T1, Muscarinic acetylcholine receptor M2 (Homo sapiens, UniProt P08172); type: functional, cell-based
T1 sequence (P08172 whole entry): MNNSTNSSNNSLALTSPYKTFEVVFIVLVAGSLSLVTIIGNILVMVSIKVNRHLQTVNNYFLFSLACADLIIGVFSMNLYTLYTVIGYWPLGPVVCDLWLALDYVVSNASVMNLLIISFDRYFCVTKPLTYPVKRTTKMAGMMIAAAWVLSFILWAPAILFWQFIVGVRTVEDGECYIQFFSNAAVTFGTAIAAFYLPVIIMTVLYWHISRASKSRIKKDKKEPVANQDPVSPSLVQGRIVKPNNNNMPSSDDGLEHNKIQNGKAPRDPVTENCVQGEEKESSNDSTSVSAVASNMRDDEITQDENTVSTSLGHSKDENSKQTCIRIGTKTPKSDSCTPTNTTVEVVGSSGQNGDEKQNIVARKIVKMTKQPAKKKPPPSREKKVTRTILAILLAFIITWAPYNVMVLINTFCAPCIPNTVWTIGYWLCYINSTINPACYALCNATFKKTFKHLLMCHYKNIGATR

Adenosine receptor A3 = target: T2, Adenosine receptor A3 (Homo sapiens, UniProt P0DMS8)
T2 sequence (P0DMS8 whole entry): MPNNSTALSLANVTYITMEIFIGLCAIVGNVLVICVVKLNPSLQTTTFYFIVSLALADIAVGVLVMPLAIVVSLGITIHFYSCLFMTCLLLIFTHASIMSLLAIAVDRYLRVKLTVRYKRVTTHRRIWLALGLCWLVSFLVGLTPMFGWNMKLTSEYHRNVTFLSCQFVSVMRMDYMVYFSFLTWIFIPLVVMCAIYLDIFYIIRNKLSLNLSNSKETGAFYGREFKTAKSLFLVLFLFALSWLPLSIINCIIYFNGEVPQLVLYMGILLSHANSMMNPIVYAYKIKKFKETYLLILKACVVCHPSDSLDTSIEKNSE

Vasopressin V2 receptor = Vasopressin V2 receptor (Homo sapiens, UniProt P30518)
Chain of Vasopressin V2 receptor (P30518 whole entry): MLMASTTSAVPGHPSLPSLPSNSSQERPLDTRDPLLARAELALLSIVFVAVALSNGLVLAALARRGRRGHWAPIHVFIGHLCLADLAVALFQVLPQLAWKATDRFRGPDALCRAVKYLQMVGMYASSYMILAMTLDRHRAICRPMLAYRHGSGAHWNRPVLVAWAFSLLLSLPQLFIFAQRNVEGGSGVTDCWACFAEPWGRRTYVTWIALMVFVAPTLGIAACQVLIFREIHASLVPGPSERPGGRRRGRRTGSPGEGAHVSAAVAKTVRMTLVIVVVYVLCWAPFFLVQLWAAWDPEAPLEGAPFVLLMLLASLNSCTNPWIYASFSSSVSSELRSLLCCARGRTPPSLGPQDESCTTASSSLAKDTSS

[2] = target: T3, Sodium-dependent dopamine transporter (Homo sapiens, UniProt Q01959)
T3 sequence (Q01959 whole entry): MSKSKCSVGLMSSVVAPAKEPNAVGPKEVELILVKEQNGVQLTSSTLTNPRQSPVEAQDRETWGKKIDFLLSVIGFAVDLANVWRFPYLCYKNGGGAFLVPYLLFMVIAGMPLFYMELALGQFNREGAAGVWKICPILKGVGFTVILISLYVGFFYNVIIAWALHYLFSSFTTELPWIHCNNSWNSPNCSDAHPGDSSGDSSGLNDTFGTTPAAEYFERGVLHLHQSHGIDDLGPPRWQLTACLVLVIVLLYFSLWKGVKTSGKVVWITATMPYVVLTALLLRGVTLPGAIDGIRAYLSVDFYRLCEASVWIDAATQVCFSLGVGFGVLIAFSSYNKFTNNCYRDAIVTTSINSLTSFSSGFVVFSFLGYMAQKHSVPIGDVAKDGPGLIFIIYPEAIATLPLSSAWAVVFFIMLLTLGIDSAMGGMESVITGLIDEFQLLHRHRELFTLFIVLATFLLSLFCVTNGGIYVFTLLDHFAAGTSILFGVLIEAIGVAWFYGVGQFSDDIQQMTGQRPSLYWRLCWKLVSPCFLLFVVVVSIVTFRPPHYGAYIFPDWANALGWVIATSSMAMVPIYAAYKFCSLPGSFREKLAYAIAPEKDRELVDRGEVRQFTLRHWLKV

[3] = target: Neuronal acetylcholine receptor subunit alpha-4 (Homo sapiens, UniProt P43681)
Chain of Neuronal acetylcholine receptor subunit alpha-4 (P43681 whole entry): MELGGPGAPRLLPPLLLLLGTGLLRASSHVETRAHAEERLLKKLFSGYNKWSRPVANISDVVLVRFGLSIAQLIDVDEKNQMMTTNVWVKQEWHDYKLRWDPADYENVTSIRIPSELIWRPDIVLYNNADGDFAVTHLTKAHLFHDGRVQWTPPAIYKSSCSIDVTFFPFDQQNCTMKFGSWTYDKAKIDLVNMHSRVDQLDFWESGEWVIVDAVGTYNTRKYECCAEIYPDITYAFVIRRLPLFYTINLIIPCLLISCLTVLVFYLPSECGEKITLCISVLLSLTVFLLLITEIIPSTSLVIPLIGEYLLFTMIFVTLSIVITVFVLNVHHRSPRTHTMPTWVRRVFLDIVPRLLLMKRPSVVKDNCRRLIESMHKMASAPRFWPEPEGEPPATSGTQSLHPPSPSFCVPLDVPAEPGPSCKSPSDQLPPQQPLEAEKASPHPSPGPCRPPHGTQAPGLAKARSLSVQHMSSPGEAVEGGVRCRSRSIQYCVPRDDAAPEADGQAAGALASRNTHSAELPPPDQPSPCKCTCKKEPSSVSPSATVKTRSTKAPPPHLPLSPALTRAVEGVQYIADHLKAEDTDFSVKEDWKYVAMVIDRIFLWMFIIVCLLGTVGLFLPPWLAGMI

[4] = target: Beta-2 adrenergic receptor (Homo sapiens, UniProt P07550); type: functional, cell-based
Chain of Beta-2 adrenergic receptor (P07550 whole entry): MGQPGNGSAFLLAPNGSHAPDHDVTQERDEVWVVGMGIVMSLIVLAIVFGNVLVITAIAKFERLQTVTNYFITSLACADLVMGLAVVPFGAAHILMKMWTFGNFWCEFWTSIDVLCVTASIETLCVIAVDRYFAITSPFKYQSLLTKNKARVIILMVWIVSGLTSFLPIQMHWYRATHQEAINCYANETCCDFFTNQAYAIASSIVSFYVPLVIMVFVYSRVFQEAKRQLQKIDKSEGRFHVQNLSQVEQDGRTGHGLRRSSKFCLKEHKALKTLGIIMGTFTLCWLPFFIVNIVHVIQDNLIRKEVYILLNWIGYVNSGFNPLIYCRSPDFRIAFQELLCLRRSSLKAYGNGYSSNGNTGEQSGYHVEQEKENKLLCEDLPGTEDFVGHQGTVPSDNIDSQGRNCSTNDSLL

Endothelin-1 receptor = target: T4, Endothelin-1 receptor (Homo sapiens, UniProt P25101)
T4 sequence (P25101 whole entry): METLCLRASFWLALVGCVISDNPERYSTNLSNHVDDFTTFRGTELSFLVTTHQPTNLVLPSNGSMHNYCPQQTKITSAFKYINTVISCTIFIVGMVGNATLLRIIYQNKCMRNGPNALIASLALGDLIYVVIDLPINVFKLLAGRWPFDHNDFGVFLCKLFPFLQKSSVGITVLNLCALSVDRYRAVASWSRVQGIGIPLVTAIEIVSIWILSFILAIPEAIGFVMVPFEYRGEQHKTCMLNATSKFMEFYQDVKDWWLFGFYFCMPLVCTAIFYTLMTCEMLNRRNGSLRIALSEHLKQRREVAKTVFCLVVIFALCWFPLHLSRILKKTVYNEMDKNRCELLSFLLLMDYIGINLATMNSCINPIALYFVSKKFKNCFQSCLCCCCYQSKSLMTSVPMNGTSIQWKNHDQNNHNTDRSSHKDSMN

[5] = target: 5-hydroxytryptamine receptor 2B (Homo sapiens, UniProt P41595); type: functional, cell-based
Chain of 5-hydroxytryptamine receptor 2B (P41595 whole entry): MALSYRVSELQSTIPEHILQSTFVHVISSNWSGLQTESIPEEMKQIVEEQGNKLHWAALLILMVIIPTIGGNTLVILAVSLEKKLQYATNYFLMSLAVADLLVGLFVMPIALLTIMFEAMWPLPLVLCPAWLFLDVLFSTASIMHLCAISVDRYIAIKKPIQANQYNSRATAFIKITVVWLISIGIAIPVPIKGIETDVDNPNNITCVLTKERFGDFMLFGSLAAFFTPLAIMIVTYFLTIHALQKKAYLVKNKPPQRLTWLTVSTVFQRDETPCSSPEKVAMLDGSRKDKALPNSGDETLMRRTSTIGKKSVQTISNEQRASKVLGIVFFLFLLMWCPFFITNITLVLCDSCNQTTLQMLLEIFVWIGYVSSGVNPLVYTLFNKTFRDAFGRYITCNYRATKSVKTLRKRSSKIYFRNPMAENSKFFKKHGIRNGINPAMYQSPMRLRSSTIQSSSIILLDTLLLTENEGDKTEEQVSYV

[6] = target: T3, Sodium-dependent dopamine transporter; remark: listed apart in the source
[7] = target: Sodium-dependent noradrenaline transporter (Homo sapiens, UniProt P23975)
Chain of Sodium-dependent noradrenaline transporter (P23975 whole entry): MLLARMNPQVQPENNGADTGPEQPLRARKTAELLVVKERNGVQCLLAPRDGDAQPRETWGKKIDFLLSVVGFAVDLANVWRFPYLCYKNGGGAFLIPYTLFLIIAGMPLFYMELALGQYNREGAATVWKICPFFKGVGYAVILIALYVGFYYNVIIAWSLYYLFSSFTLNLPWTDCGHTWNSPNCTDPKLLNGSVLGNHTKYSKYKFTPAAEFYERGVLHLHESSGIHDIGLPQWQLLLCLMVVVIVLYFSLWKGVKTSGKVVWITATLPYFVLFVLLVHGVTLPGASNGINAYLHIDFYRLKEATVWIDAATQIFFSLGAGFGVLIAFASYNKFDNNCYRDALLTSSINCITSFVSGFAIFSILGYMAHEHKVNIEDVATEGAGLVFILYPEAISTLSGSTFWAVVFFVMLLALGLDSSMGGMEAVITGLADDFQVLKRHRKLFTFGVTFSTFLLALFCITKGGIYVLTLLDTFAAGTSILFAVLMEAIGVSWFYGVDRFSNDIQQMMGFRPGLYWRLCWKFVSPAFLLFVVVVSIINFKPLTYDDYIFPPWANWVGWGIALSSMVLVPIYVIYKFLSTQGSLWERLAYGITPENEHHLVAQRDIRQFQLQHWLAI

[8] = target: T5, 5-hydroxytryptamine receptor 1A (Homo sapiens, UniProt P08908)
T5 sequence (P08908 whole entry): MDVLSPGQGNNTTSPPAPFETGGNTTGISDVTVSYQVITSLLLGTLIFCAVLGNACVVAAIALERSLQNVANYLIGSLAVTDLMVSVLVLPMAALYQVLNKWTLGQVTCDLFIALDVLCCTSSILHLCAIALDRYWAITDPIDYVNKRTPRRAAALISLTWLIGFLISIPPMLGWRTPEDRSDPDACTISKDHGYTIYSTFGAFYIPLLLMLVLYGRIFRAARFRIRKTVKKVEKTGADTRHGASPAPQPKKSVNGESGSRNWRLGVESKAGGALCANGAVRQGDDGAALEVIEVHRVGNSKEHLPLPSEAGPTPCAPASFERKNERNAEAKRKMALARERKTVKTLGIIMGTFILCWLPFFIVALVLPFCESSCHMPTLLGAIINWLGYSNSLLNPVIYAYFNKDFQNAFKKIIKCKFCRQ

Thromboxane A2 receptor = target: T6, Thromboxane A2 receptor (Homo sapiens, UniProt P21731); type: functional, cell-based
T6 sequence (P21731 whole entry): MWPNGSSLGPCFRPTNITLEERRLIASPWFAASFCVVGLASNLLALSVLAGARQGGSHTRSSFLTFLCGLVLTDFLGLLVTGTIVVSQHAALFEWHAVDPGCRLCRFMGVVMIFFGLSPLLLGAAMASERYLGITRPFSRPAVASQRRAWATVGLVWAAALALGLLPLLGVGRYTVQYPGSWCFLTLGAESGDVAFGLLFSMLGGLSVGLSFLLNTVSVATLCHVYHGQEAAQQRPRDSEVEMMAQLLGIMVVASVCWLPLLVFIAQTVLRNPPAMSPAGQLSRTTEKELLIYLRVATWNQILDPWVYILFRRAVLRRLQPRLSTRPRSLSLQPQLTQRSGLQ

[9] = target: T7, Alpha-2A adrenergic receptor (Homo sapiens, UniProt P08913)
T7 sequence (P08913 whole entry): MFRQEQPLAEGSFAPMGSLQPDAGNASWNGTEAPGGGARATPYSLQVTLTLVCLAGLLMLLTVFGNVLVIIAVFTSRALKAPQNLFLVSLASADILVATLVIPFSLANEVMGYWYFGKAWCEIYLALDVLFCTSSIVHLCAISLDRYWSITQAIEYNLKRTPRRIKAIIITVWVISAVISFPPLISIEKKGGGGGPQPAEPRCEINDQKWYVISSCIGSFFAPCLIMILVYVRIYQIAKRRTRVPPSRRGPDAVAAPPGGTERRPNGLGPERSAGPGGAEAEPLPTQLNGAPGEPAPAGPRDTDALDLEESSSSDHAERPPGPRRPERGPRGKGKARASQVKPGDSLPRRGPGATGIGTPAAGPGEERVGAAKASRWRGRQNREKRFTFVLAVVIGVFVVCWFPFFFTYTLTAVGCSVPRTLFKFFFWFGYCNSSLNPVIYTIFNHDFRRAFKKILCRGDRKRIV
Also: assay procedure not described here.

Row | SMILES | AC50 [1] | AC50 (Adenosine receptor A3) | AC50 (Vasopressin V2 receptor) | AC50 [2] | AC50 [3] | AC50 [4] | AC50 (Endothelin-1 receptor) | AC50 [5] | AC50 [6] | AC50 [7] | AC50 [8] | AC50 (Thromboxane A2 receptor) | AC50 [9]
1 | O=C1C(CC[S+]([O-])c2ccccc2)C(=O)N(c2ccccc2)N1c1ccccc1 (stereo not given) [SULFINPYRAZONE] | > 10 µM | > 10 µM | > 10 µM | > 10 µM | > 10 µM | > 30 µM | – | – | – | – | – | – | –
2 | CCN(CC)CCNC(=O)c1c(C)[nH]c(/C=C2\C(=O)Nc3ccc(F)cc32)c1C [SUNITINIB] | > 10 µM | 8.4 µM | 5.4 µM | – | 7.3 µM | – | 8.3 µM | – | – | – | – | – | –
3 | CO[C@H]1/C=C/O[C@@]2(C)Oc3c(C)c(O)c4c(O)c(c(/C=N/N5CCN(C)CC5)c(O)c4c3C2=O)NC(=O)/C(C)=C\C=C\[C@H](C)[C@H](O)[C@@H](C)[C@@H](O)[C@@H](C)[C@H](OC(C)=O)[C@@H]1C [RIFAMPIN] | > 10 µM | 27 µM | 30 µM | 20 µM | 22 µM | – | > 30 µM | – | – | – | – | – | –
4 | C#C[C@]1(O)CC[C@H]2[C@@H]3CCC4=CC(=O)CC[C@@H]4[C@H]3C(=C)C[C@@]21CC [ETONOGESTREL] | – | – | – | – | – | > 30 µM | – | > 30 µM | > 30 µM | > 30 µM | > 30 µM | > 30 µM | > 30 µM
5 | COc1ccccc1OCCNCC(O)COc1cccc2[nH]c3ccccc3c12 (stereo not given) [CARVEDILOL] | > 10 µM | 18.6 µM | > 30 µM | 4.53 µM | > 30 µM | – | > 30 µM | – | – | – | – | – | –
6 | CN1C[C@H](C(=O)N[C@]2(C)O[C@@]3(O)[C@@H]4CCCN4C(=O)[C@H](Cc4ccccc4)N3C2=O)C=C2c3cccc4[nH]cc(c34)C[C@H]21 [ERGOTAMINE] | > 30 µM | > 30 µM | – | > 30 µM | > 30 µM | – | > 30 µM | – | – | – | – | – | –
7 | CN1C(C(=O)Nc2ccccn2)=C(O)c2ccccc2S1(=O)=O [PIROXICAM] | > 10 µM | > 10 µM | > 10 µM | > 10 µM | > 10 µM | – | – | > 30 µM | > 30 µM | > 30 µM | > 30 µM | > 30 µM | > 30 µM
8 | CCCN(CCC)C(=O)Cc1c(-c2ccc(Cl)cc2)nc2ccc(Cl)cn12 [ALPIDEM] | > 30 µM | 11.5 µM | > 30 µM | > 30 µM | > 30 µM | – | > 10 µM | > 30 µM | > 30 µM | > 30 µM | > 30 µM | > 30 µM | > 30 µM
9 | CC(=O)O[C@]1(C(C)=O)CC[C@H]2[C@@H]3C=C(C)C4=CC(=O)CC[C@@H]4[C@H]3CC[C@@]21C [NOMEGESTROL ACETATE] | > 30 µM | > 30 µM | – | > 30 µM | > 30 µM | > 30 µM | – | > 30 µM | > 30 µM | > 30 µM | > 30 µM | > 30 µM | > 30 µM
10 | CCCC(CCC)C(=O)O [VALPROIC ACID] | > 10 µM | > 30 µM | > 30 µM | 4.97 µM | > 10 µM | – | > 30 µM | > 30 µM | > 30 µM | > 30 µM | > 30 µM | > 30 µM | > 30 µM
11 | CC(C)(C)NCC(O)c1cc(O)cc(O)c1 (stereo not given) [TERBUTALINE] | – | > 30 µM | > 30 µM | > 30 µM | > 30 µM | – | > 30 µM | – | – | – | – | – | –
12 | CC(C(=O)O)c1ccc2c(c1)[nH]c1ccc(Cl)cc12 (stereo not given) [CARPROFEN] | > 10 µM | > 30 µM | > 30 µM | > 30 µM | > 30 µM | – | > 10 µM | – | – | – | – | – | –
13 | C=C[C@H]1C[N@@]2CC[C@H]1C[C@@H]2[C@@H](O)c1ccnc2ccc(OC)cc12 [QUINIDINE] | > 10 µM | > 30 µM | > 30 µM | 9.56 µM | – | > 30 µM | – | – | – | – | – | – | –
14 | CN(C)CC[C@@H](c1ccc(Cl)cc1)c1ccccn1 [DEXCHLORPHENIRAMINE] | 26 µM | > 30 µM | > 30 µM | – | > 30 µM | – | > 30 µM | – | – | – | – | – | –
15 | CN(CC1(C)CCCO1)S(=O)(=O)c1ccc(Cl)c(S(N)(=O)=O)c1 (stereo not given) [MEFRUSIDE] | – | – | – | – | – | > 30 µM | – | > 30 µM | > 30 µM | > 30 µM | > 30 µM | > 30 µM | > 30 µM
16 | COc1ccccc1Oc1c(NS(=O)(=O)c2ccc(C(C)(C)C)cc2)nc(-c2ncccn2)nc1OCCO [BOSENTAN] | > 10 µM | > 30 µM | > 30 µM | > 30 µM | > 30 µM | > 30 µM | – | – | – | – | – | – | –
17 | CC1=C(/C=C/C(C)=C/C=C/C(C)=C/C(=O)O)C(C)(C)CCC1 [TRETINOIN] | – | – | – | – | – | – | – | > 30 µM | > 30 µM | 10.5 µM | > 30 µM | > 30 µM | > 30 µM
18 | O=C(O)CO [GLYCOLIC ACID] | – | – | – | – | – | – | – | > 30 µM | > 30 µM | > 30 µM | > 30 µM | > 30 µM | > 30 µM
19 | COc1cc2nc(N3CCN(C(=O)C4CCCO4)CC3)nc(N)c2cc1OC (stereo not given) [TERAZOSIN] | > 10 µM | > 30 µM | > 30 µM | > 10 µM | > 10 µM | – | > 30 µM | > 30 µM | > 30 µM | > 30 µM | > 30 µM | > 30 µM | 11.8 µM
20 | [H]/N=C(\N/C(=N/[H])Nc1ccc(Cl)cc1)NC(C)C [PROGUANIL] | – | – | – | – | – | – | – | > 30 µM | 12.5 µM | 1.07 µM | > 30 µM | > 30 µM | 11.9 µM
